Test results published in patent US11034685B2, “Aminopyridine derivatives as TAM family kinase inhibitors” (SignalChem Lifesciences Corporation, priority 2013, dated 2021).

Key:
Format in all cases: biochemical
[1] = biological target: T1, Recombinant human Tyro3 (455-end) (Homo sapiens, UniProt Q06418); test: Kinase enzymatic activity assay ([33P]-ATP phosphate transfer), Tyro3; conditions: inhibitory activity on Tyro3; class symbols
T1 construct: GST (N); made in house; host or cells: Sf9 insect cells (baculovirus)
T1 sequence (Q06418 455-890 limits assumed): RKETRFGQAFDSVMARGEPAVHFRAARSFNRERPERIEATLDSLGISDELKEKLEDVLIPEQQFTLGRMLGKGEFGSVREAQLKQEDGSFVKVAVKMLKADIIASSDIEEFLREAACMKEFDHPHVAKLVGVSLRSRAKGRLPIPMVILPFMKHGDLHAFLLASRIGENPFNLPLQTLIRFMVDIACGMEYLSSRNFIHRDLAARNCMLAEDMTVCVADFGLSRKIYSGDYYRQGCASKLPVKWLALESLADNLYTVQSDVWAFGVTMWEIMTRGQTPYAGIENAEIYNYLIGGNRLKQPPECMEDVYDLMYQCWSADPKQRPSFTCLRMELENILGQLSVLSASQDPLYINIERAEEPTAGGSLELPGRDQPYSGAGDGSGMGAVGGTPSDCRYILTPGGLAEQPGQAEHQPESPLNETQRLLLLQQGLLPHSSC
Method: (§1) Preparation of Active Recombinant Kinase Proteins:
(§2) Recombinant human Tyro3 (455-end, the gene accession number NM_006293), human Axl (473-end, the gene accession number NM_021913) and human Mer (578-872, the gene accession number NM_006343) were independently expressed by baculovirus in Sf9 insect cells using an N-terminal GST tag. The recombinant proteins were stored at −70° C. in a medium containing 50 mM Tris-HCl, pH 7.5, 150 mM NaCl, 10 mM glutathione, 0.1 mM EDTA, 0.25 mM DTT, 0.1 mM PMSF and 25% glycerol. The recombinant proteins were aliquoted into smaller quantities after centrifugation to avoid repeated handling and multiple freeze/thaw cycles for the most favorable performance.
(§3) Preparation of Assay Reagents:
(§4) Kinase Assay Buffer: This buffer solution consisted of the following components: 25 mM MOPS, pH 7.2, 12.5 mM β-glycerol-phosphate, 25 mM MgCl2, 5 mM EGTA, 2 mM EDTA and DTT 0.25 mM which was added prior to use.
(§5) Kinase Dilution Buffer: Kinase Assay Buffer was diluted at a 1:4 ratio (5× dilution) with distilled water.
(§6) [^33P]-ATP assay cocktail: In a designated radioactive working area, a 250 μM [^33P]-ATP assay cocktail was prepared by the addition of the following components: 150 μL of 10 mM ATP stock solution, 100 μL [^33P]-ATP (1 mci/100 μL), 5.75 mL of kinase assay buffer. This solution was stored in 1 mL aliquots at −20 OC.
(§7) ATP stock solution (10 mM): The ATP stock solution was prepared by dissolving 55 mg of ATP in 10 mL of kinase assay buffer. It was stored in 200 μL aliquots at −20° C.
(§8) Active Kinase Stock Solution: The active recombinant kinase protein (0.1 μg/μL) was diluted with Kinase Dilution Buffer and the activity was assayed using a serial dilution method. The specific activity is expressed in nmoL/min/mg.
(§9) Substrates: poly(4:1 glu:tyr) is the substrate used for each kinase Tyro3, Axl and Mer: The peptide substrate was dissolved in water to give the final concentration of 1 mg/mL.
(§10) Test compound solution: Test compound was dissolved in DMSO to obtain a 10 mM solution. The assay solution was prepared by adding 5 μL of this solution to […] of 10% DMSO/water to obtain the final concentration of 50 μM.
(§11) The enzymatic activity of all three kinases was determined as follows. Using a 96-well plate, the wells were divided into three categories: Blank wells, […] and Test wells. In Test wells, 5 μL of the test compound solution and 5 μL of the substrate solution were added. In Control wells, 5 μL of 10% DMSO/water and 5 μL of the substrate solution were added. In Blank wells, 10 μL of 10% DMSO/water was added. To each well was added 10 μL of Active Kinase Stock Solution to make up the volume in each well to 20 μL. All test samples, controls and blanks were run in duplicate. The reaction was initiated by the addition of 5 μL of [^33P]-ATP assay cocktail, bringing the final volume up to 25 μL in every well. The mixture was incubated at room temperature for 30 minutes. The reaction was terminated by transferring 10 μL of the reaction mixture into a Millipore MultiScreen filter plate (cat. number MSPHN6B50). The filter plate was washed in a 1% phosphoric acid solution with constant gentle shaking for 15 minutes and this step was repeated once. After the plate was dried in air, scintillation fluid was added to each well and the radioactivity in each well in CPM was counted by a Microbeta TriLux. The corrected CPM in each test well was determined by subtracting the average value of Blank well values. Percentage of inhibition of the kinase enzymatic activity by the test compound was determined using the following formula: […]
(§12) The IC50 values were determined in a similar way following a serial dilution of the test compound. The percentage of inhibition at each concentration was calculated following the above formula. The IC50 was estimated from the curve of % Inhibition against Concentration in log unit using Prism 5, version 5.01.

[2] = biological target: T2, human Mer (578-872) (Homo sapiens, UniProt Q12866); test: Kinase enzymatic activity assay ([33P]-ATP phosphate transfer), Mer; conditions: inhibitory activity on Mer; class symbols
T2 construct: GST (N); made in house; host or cells: Sf9 insect cells (baculovirus)
T2 sequence (Q12866 578-872): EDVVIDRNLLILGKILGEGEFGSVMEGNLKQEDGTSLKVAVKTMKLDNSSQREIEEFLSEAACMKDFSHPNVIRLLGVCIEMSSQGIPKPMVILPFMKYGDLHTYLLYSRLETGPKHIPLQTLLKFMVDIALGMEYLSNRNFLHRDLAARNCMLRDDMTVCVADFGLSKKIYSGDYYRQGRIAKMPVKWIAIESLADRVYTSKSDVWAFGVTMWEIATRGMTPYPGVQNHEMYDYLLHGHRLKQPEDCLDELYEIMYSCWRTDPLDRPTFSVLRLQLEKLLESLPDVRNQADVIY
Method: as §1, §2, §3, §4, §5, §6, §7, §8, §9, §10, §11, §12

[3] = biological target: T3, human Axl (473-end) (Homo sapiens, UniProt P30530); test: Kinase enzymatic activity assay ([33P]-ATP phosphate transfer), Axl; conditions: inhibitory activity on Axl; class symbols
T3 construct: GST (N); made in house; host or cells: Sf9 insect cells (baculovirus)
T3 sequence (P30530 473-894 limits assumed): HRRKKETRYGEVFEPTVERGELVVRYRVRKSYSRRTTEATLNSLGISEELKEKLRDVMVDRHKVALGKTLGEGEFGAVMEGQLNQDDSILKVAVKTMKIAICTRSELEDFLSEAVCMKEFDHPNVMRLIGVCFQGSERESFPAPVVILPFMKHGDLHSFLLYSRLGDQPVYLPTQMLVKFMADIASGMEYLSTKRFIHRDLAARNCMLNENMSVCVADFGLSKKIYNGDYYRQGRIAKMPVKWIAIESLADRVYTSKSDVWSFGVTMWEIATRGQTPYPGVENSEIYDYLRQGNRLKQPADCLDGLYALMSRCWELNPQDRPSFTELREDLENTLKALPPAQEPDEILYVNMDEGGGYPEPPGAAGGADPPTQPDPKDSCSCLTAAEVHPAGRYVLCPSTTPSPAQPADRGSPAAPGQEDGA
Method: as §1, §2, §3, §4, §5, §6, §7, §8, §9, §10, §11, §12

Structure (SMILES)	IC50 [1]	IC50 [2]	IC50 [3]
Nc1ncc(-c2cnn(C3CCOCC3)c2)cc1-c1nc(-c2ccccc2)no1 [3-(3-phenyl-1,2,4-oxadiazol-5-yl)-5-(1-(tetrahydro-2H-pyran-4-yl)-1H-pyrazol-4-yl)pyridin-2-amine]	> 10000 nM	> 10000 nM	> 10000 nM
Nc1ncc(-c2cn[nH]c2)cc1-c1nc(-c2ccccc2)no1 [3-(3-phenyl-1,2,4-oxadiazol-5-yl)-5-(1H-pyrazol-4-yl)pyridin-2-amine]	1000 to 10000 nM	1000 to 10000 nM	500 to 1000 nM
Nc1ncc(-c2cnn(C3CCNCC3)c2)cc1-c1noc(-c2cc(Cl)ccc2Cl)n1 [3-(5-(2,5-dichlorophenyl)-1,2,4-oxadiazol-3-yl)-5-(1-(piperidin-4-yl)-1H-pyrazol-4-yl)pyridin-2-amine]	< 500 nM	500 to 1000 nM	< 500 nM
Nc1ncc(-c2cn[nH]c2)cc1-c1nnc(-c2cc(F)ccc2F)o1 [3-(5-(2,5-difluorophenyl)-1,3,4-oxadiazol-2-yl)-5-(1H-pyrazol-4-yl)pyridin-2-amine]	< 500 nM	1000 to 10000 nM	< 500 nM
Nc1ncc(-c2cnn(C3CCNCC3)c2)cc1-c1nnc(-c2c(Cl)ccc(F)c2Cl)o1 [3-(5-(2,6-dichloro-3-fluorophenyl)-1,3,4-oxadiazol-2-yl)-5-(1-(piperidin-4-yl)-1H-pyrazol-4-yl)pyridin-2-amine]	< 500 nM	< 500 nM	< 500 nM
CCCCCCCCCCCCN1CCC(n2cc(-c3cnc(N)c(-c4nnc(-c5c(Cl)cccc5Cl)o4)c3)cn2)CC1 [3-(5-(2,6-dichlorophenyl)-1,3,4-oxadiazol-2-yl)-5-(1-(1-dodecylpiperidin-4-yl)-1H-pyrazol-4-yl)pyridin-2-amine]	500 to 1000 nM	1000 to 10000 nM	1000 to 10000 nM
CCN1CCC(n2cc(-c3cnc(N)c(-c4nnc(-c5c(Cl)cccc5Cl)o4)c3)cn2)CC1 [3-(5-(2,6-dichlorophenyl)-1,3,4-oxadiazol-2-yl)-5-(1-(1-ethylpiperidin-4-yl)-1H-pyrazol-4-yl)pyridin-2-amine]	< 500 nM	< 500 nM	< 500 nM

More lines, now with the values ahead:

IC50 [1]	IC50 [2]	IC50 [3]	Structure (SMILES)
< 500 nM	< 500 nM	1000 to 10000 nM	CCCCCCCCCCCCN1CCC(n2cc(-c3cnc(N)c(-c4nc(-c5c(Cl)cccc5Cl)no4)c3)cn2)CC1 [3-(3-(2,6-dichlorophenyl)-1,2,4-oxadiazol-5-yl)-5-(1-(1-dodecylpiperidin-4-yl)-1H-pyrazol-4-yl)pyridin-2-amine]
< 500 nM	< 500 nM	< 500 nM	CCN1CCC(n2cc(-c3cnc(N)c(-c4nc(-c5c(Cl)cccc5Cl)no4)c3)cn2)CC1 [3-(3-(2,6-dichlorophenyl)-1,2,4-oxadiazol-5-yl)-5-(1-(1-ethylpiperidin-4-yl)-1H-pyrazol-4-yl)pyridin-2-amine]
< 500 nM	< 500 nM	< 500 nM	CN1CCC(n2cc(-c3cnc(N)c(-c4nc(-c5c(Cl)cccc5Cl)no4)c3)cn2)CC1 [3-(3-(2,6-dichlorophenyl)-1,2,4-oxadiazol-5-yl)-5-(1-(1-methylpiperidin-4-yl)-1H-pyrazol-4-yl)pyridin-2-amine]
< 500 nM	< 500 nM	< 500 nM	Nc1ncc(-c2cnn(C3CCNCC3)c2)cc1-c1nc(-c2c(Cl)cccc2Cl)no1 [3-(3-(2,6-dichlorophenyl)-1,2,4-oxadiazol-5-yl)-5-(1-(piperidin-4-yl)-1H-pyrazol-4-yl)pyridin-2-amine]
< 500 nM	1000 to 10000 nM	1000 to 10000 nM	Nc1ncc(-c2cnn(C3CCOCC3)c2)cc1-c1nc(-c2c(Cl)cccc2Cl)no1 [3-(3-(2,6-dichlorophenyl)-1,2,4-oxadiazol-5-yl)-5-(1-(tetrahydro-2H-pyran-4-yl)-1H-pyrazol-4-yl)pyridin-2-amine]
< 500 nM	< 500 nM	< 500 nM	Nc1ncc(-c2cnn(C3CCNCC3)c2)cc1-c1nc(-c2ccccc2)no1 [3-(3-phenyl-1,2,4-oxadiazol-5-yl)-5-(1-(piperidin-4-yl)-1H-pyrazol-4-yl)pyridin-2-amine]
